Columns and labels:
Assay type in all cases: in vivo, maize cv. Lorenzo
Details in all cases: vs unstressed solvent-dressed control
[1] = test system: Zm12587.1.S1.s_at: glycosyltransferase; assay: Gene expression profiling (maize genome array), heat stress
Procedure: (§1) Maize seeds cv. Lorenzo were dressed as described in example 1 with the compound VIII-3 (=4-cyclopropylaminocarbonyl-N-(2-methoxybenzoyl)benzenesulfonamide) or with solvent. The plants were raised for 10 days in a controlled-environment chamber (conditions: see example 1).
(§2) Thereafter, the plants were exposed to the following stress conditions: • (1) Heat stress: 6 h at 45° C. • (2) Drought stress: 7 days without irrigation, 24° C.
(§3) The control plants of the specific experimental group were kept under the standard conditions described in example 1 (temperature, irrigation).
(§4) After the stress treatment, the leaves of the stressed plants and of the unstressed control plants were harvested, shock-frozen in liquid nitrogen and stored at −80° C. until processed. All experiments were carried out in replications of in each case 2 pots.
(§5) The labeled RNA probes for the DNA chip hybridization were prepared as described in the protocols (Expression Analysis. Technical Manual) from Affymetrix (Affymetrix Inc., 3380 Central Expressway, Santa Clara, Calif., USA). First, total RNA was isolated from in each case 500 mg of the harvested leaves. In each case 10 μg of total RNA were used for the cDNA first- and second-strand synthesis. The cDNA was amplified with T7 polymerase and simultaneously labeled with biotin-UTP. In each case 20 μg of this biotinylated […] were employed for the hybridization of the maize genome array from Affymetrix. This DNA microarray contains DNA sequences whose totality represents 13339 genes. Thereafter, the DNA microarrays were washed in the Affymetrix Fluidics Station, stained with streptavidin/phycoerythrin (Molecular Probes, P/N S-866) and scanned with the appropriate Agilent Laser Scanner (Agilent Gene Array Scanner). The fluorescence data obtained were analyzed using Affymetrix's Microarray Suite 5 software. After the quality assurance had been performed, all DNA chip analyses were stored in a database. To determine relevant expression values (induction factors, repression factors), the absolute expression values of the genes from the respective stress experiments were compared with the values of the respective control experiments (i.e. without abiotic stress and solvent-dressing only), based on the scoring function predetermined by the Affymetrix software. The resulting 4 expression values per gene were averaged by calculating the median value. These median values are shown in the results tables as induction factors. Similarity comparisons of expression profiles of various experiments and cluster analyses were carried out using the “genedata expressionist” software from Genedata (Genedata, Maulbeerstr. 46, CH-4016 Basel, Switzerland).
(§6) The analysis of the expression profiles specifically searched for genes which are induced by the test substances only in conjunction with abiotic stress, but not by the substances or by stress alone. Such genes can be considered as indicators for additional anti-stress effects of the substances which exceed the known safener effect. The induction patterns of the indicator genes described permit the targeted finding of active substances for increasing the abiotic stress tolerance in crop plants. • a) Under heat stress conditions, i.e. the tested maize plants (dressed with 2 mg a.i. 4-cyclopropylaminocarbonyl-N-(2-methoxybenzoyl)benzenesulfonamide/g seeds) were exposed to a temperature of 45° C. for 6 hours 7 days after germination.
(§7) • Condition A: heat stress (6 hours, 45° C.) • Condition B: Seeds dressed with 4-cyclopropylaminocarbonyl-N-(2-methoxybenzoyl)benzenesulfonamide (VIII-3)/NO heat stress • Condition C: Seeds dressed with 4-cyclopropylaminocarbonyl-N-(2-methoxybenzoyl)benzenesulfonamide (VIII-3)+heat stress (6 hours, 45° C.).

[2] = test system: Zm.3040.1.S1_at uricase II (E.C.1.7.3.3); nodule specific uricase; assay: as above
Procedure: as §1, §2, §3, §4, §5, §6, §7

[3] = test system: Zm.13498.1.S1_at: membrane protein; assay: as above
Procedure: as §1, §2, §3, §4, §5, §6, §7

[4] = test system: Zm.4274.1.S1_at: cytochrome P450; assay: as above
Procedure: as §1, §2, §3, §4, §5, §6, §7

[5] = test system: Zm.10097.1.A1_at expressed protein; assay: Gene expression profiling (maize genome array), drought stress
Procedure: as §1, §2, §3, §4, §5
(§8) The induction patterns derived from table 5 and which are shown directly by the resulting expression values show characteristic inductions by the action of the compound 4-cyclopropylaminocarbonyl-N-(2-methoxybenzoyl)benzenesulfonamide (=VIII-3), the effect on the putative N-carbamyl-L-amino acid amidohydrolase [Zm.11840.1.A1_at] and on the putative serine carboxypeptidase [Zm18994.2.A1-at] being most pronounced. • b) Under dried stress conditions, i.e. the tested maize plants (dressed with 2 mg a.i. 4-cyclopropylaminocarbonyl-N-(2-methoxybenzoyl)benzenesulfonamide/g seeds) were exposed to a temperature of 24° C. for 7 hours 7 days after germination.
as §7, with “drought” for “heat”, “(7 days, 24°” for “(6 hours, 45°”, “(VIII-3)+drought” for “(VIII-3)+heat”

[6] = test system: Zm.13229.1.S1_at NBS-LRR type disease resistance protein O2 (fragment); assay: as above
Procedure: as §1, §2, §3, §4, §5, §8
as §7, with “drought” for “heat”, “(7 days, 24°” for “(6 hours, 45°”, “(VIII-3)+drought” for “(VIII-3)+heat”

[7] = test system: Zm.3633.4.A1_at wound induced protein (fragment); assay: as above
Procedure: as §1, §2, §3, §4, §5, §8
as §7, with “drought” for “heat”, “(7 days, 24°” for “(6 hours, 45°”, “(VIII-3)+drought” for “(VIII-3)+heat”

[8] = test system: Zm.18682.1.A1_at unknown protein; assay: as above
Procedure: as §1, §2, §3, §4, §5, §8
as §7, with “drought” for “heat”, “(7 days, 24°” for “(6 hours, 45°”, “(VIII-3)+drought” for “(VIII-3)+heat”

[9] = test system: Zm.485.1.A1_at non-symbiotic hemoglobin (HBT) (ZEAMP GLB1); assay: as above
Procedure: as §1, §2, §3, §4, §5, §8
as §7, with “drought” for “heat”, “(7 days, 24°” for “(6 hours, 45°”, “(VIII-3)+drought” for “(VIII-3)+heat”

[10] = test system: Zm.818.2.A1_at expressed protein; assay: as above
Procedure: as §1, §2, §3, §4, §5, §8
as §7, with “drought” for “heat”, “(7 days, 24°” for “(6 hours, 45°”, “(VIII-3)+drought” for “(VIII-3)+heat”

[11] = test system: Zm.12035.1.A1_at similar to AT3G10120; assay: as above
Procedure: as §1, §2, §3, §4, §5, §8
as §7, with “drought” for “heat”, “(7 days, 24°” for “(6 hours, 45°”, “(VIII-3)+drought” for “(VIII-3)+heat”

[12] = test system: Zm.18273.1.S1_at regulatory protein-like; assay: as above
Procedure: as §1, §2, §3, §4, §5, §8
as §7, with “drought” for “heat”, “(7 days, 24°” for “(6 hours, 45°”, “(VIII-3)+drought” for “(VIII-3)+heat”

[13] = test system: Zm.818.1.A1_at universal stress protein; assay: as above
Procedure: as §1, §2, §3, §4, §5, §8
as §7, with “drought” for “heat”, “(7 days, 24°” for “(6 hours, 45°”, “(VIII-3)+drought” for “(VIII-3)+heat”

[14] = seeds dressed with VIII-3 (2 mg a.i./g seeds), NO heat stress
[15] = seeds dressed with VIII-3 + heat stress (6 hours, 45° C.)
[16] = seeds dressed with VIII-3 (2 mg a.i./g seeds), NO drought stress
[17] = seeds dressed with VIII-3 + drought stress (7 days, 24° C.)

For `COc1ccccc1C(=O)NS(=O)(=O)c1ccc(C(=O)NC2CC2)cc1` [VIII-3, 4-cyclopropylaminocarbonyl-N-(2-methoxybenzoyl)benzenesulfonamide], the “induction factor Zm12587.1.S1.s_at, Condition B” value [1, 14] was 1.45, the “induction factor Zm12587.1.S1.s_at, Condition C” value [1, 15] was 2.33 and the “induction factor Zm.3040.1.S1_at, Condition B” value [2, 14] was 1.33. For the same molecule, the “induction factor Zm.3040.1.S1_at, Condition C” value [2, 15] was 2.48, the “induction factor Zm.13498.1.S1_at, Condition B” value [3, 14] was 1.73 and the “induction factor Zm.13498.1.S1_at, Condition C” value [3, 15] was 4.45. The “induction factor Zm.4274.1.S1_at, Condition B” value [4, 14] was 1.22, the “induction factor Zm.4274.1.S1_at, Condition C” value [4, 15] was 1.93 and the “induction factor Zm.10097.1.A1_at, Condition B” value [5, 16] was 1.27. For the same molecule, the “induction factor Zm.10097.1.A1_at, Condition C” value [5, 17] was 3.29, the “induction factor Zm.13229.1.S1_at, Condition B” value [6, 16] was 1.02 and the “induction factor Zm.13229.1.S1_at, Condition C” value [6, 17] was 3.39. The “induction factor Zm.3633.4.A1_at, Condition B” value [7, 16] was 0.74, the “induction factor Zm.3633.4.A1_at, Condition C” value [7, 17] was 3.03 and the “induction factor Zm.18682.1.A1_at, Condition B” value [8, 16] was 1.12. The “induction factor Zm.18682.1.A1_at, Condition C” value [8, 17] was 4.19, the “induction factor Zm.485.1.A1_at, Condition B” value [9, 16] was 1.00 and the “induction factor Zm.485.1.A1_at, Condition C” value [9, 17] was 5.49. For the same molecule, the “induction factor Zm.818.2.A1_at, Condition B” value [10, 16] was 1.10, the “induction factor Zm.818.2.A1_at, Condition C” value [10, 17] was 5.40 and the “induction factor Zm.12035.1.A1_at, Condition B” value [11, 16] was 0.90. The “induction factor Zm.12035.1.A1_at, Condition C” value [11, 17] was 3.66, the “induction factor Zm.18273.1.S1_at, Condition B” value [12, 16] was 0.95 and the “induction factor Zm.18273.1.S1_at, Condition C” value [12, 17] was 2.91. The “induction factor Zm.818.1.A1_at, Condition B” value [13, 16] was 1.12 and the “induction factor Zm.818.1.A1_at, Condition C” value [13, 17] was 8.47.

Reference: patent US9920383B2, “Active substances for increasing the stress defense in plants to abiotic stress, and methods of finding them” (Bayer Intellectual Property GMBH, priority 2005, dated 2018)
